In paper PMC12395807, “Chemoreceptor family in plant-associated bacteria responds preferentially to the plant signal molecule glycerol 3-phosphate” (Genome Biology, 2025):

What was measured:
[1] = biological target: LBD of chemoreceptor R3 (WP_006464688.1) (Herbaspirillum frisingense, UniProt A0ABU1PC34); assay: ITC binding to R3-LBD; conditions: 20 °C, Nb = no binding
Description: (§1) Plasmids for the overexpression of the different proteins were transformed into E. coli BL21(DE3). The resulting strains were grown under continuous stirring (200 rpm) at 30 °C in 2-L Erlenmeyer flasks containing 500 mL of LB medium supplemented with 50 μg/mL kanamycin. At an OD660 of 0.5, protein expression was induced by the addition of 0.1 mM isopropyl β-D-1-thiogalactopyranoside. Growth was continued at 16 °C overnight prior to cell harvesting by centrifugation at 10,000 × g for 20 min. Cell pellets were resuspended in buffer A (Additional file 2: Table S4) and subsequently broken by French press treatment at 62.5 lb/in^2. After centrifugation at 20,000 × g for 30 min, the supernatants were loaded onto 5-mL HisTrap HP columns (Amersham Biosciences) equilibrated with buffer A, and the proteins were eluted with a linear gradient of buffer B (Additional file 2: Table S4). All proteins contain a hexa-histidine tag at the N-terminal extension (Additional file 2: Table S3) and were purified at 4 °C. The purified proteins were dialyzed overnight into the corresponding analysis buffers (Additional file 2: Table S4) for immediate analysis.
(§2) All experiments were conducted on a VP microcalorimeter (Microcal, MA) at 15 °C for PacP-LBD and at 20 °C for the remaining proteins. Proteins were dialyzed into the analysis buffers specified in Additional file 2: Table S4, placed into the sample cell and titrated with aliquots of ligand solutions (1 to 10 mM) freshly prepared in dialysis buffer. The mean enthalpies measured from the injection of the ligands into the analysis buffer were subtracted from the raw titration data prior to data analysis with the MicroCal version of ORIGIN. The data were fitted with the “One binding site model” of ORIGIN.

[2] = biological target: LBD of chemoreceptor R4 (WP_158281851.1) (Rivihabitans pingtungensis, UniProt A0A318KJN4); assay: ITC binding to R4-LBD; design: species or system Rivicola pingtungensis; conditions: 20 °C, Nb = no binding
Chain of LBD of chemoreceptor R4 (WP_158281851.1) (A0A318KJN4 entry or part of it): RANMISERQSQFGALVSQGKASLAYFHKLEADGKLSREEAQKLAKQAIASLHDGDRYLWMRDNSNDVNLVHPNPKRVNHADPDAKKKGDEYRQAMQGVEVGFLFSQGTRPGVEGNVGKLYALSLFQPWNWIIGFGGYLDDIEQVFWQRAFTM
Description: as §1, §2

[3] = biological target: LBD of chemoreceptor R6 (WP_174062248.1); assay: ITC binding to R6-LBD; design: species or system Agrobacterium larrymoorei; conditions: 20 °C, Nb = no binding
Description: as §1, §2

[4] = biological target: LBD of chemoreceptor R10 (WP_028866120.1); assay: ITC binding to R10-LBD; design: species or system Psychromonas aquimarina; conditions: 20 °C, Nb = no binding
Description: as §1, §2

[5] = test system: P. atrosepticum SCRI1043 pacP mutant (MpacP); assay: Quantitative capillary chemotaxis assay, pacP mutant; type: cell-based, Pectobacterium atrosepticum; conditions: 1 mM ligand
Excerpt: A mutant defective in ECA_RS12390 was constructed by homologous recombination using a derivative plasmid of the suicide vector pKNG101. Briefly, a 0.5-kb fragment corresponding to the region encoding the LBD of ECA_RS12390 was amplified by the primers specified in Additional file 2: Table S2 and cloned into pGEM®-T. The resulting plasmid pGEM::ECA_RS12390 was digested with XmaI, and the 0.5-kb insert was cloned into the same site at pKNG101 to generate pKNG101::ECA_RS12390. This plasmid was subsequently transformed into P. atrosepticum SRCI1043 via biparental conjugation using E. coli β2163. All the plasmids were verified by PCR and sequencing. The pETb(+) derivatives encoding the LBD of the different receptors analyzed in this study (Table 1) were purchased from GeneScript. Plasmid pBBR-ECA_RS12390 was constructed by amplifying the pacP gene using the primers detailed in Additional file 2: Table S2 and cloning of the PCR product into the NdeI/BamHI sites of pBBR1MCS2_START. The sequences of the proteins analyzed in this study are provided in Additional file 2: Table S3. The ECA_RS12390 nucleotide sequence is available in the published genome of P. atrosepticum SCRI1043 [60].
(§3) Overnight cultures of P. atrosepticum SCRI1043 were grown at 30 °C in minimal medium. At an OD660 of 0.4–0.45, the cultures were washed twice with chemotaxis buffer (50 mM K2HPO4/KH2PO4, 20 μM EDTA, 0.05% (v/v) glycerol, pH 7.0) and diluted to an OD660 of 0.1 in the same buffer. Subsequently, 230 μL of the resulting bacterial suspension was placed into the wells of 96-well plates. One-microliter capillary tubes (P1424, Microcaps; Drummond Scientific) were heat-sealed at one end and filled with either chemotaxis buffer (negative control) or chemotaxis buffer containing PacP ligands at a concentration of 1 mM. The capillaries were immersed in the bacterial suspensions at their open ends. After 30 min at room temperature, the capillaries were removed from the bacterial suspensions, rinsed with sterile water, and the contents were expelled into 1 mL of 40 mM K2HPO4, 15 mM KH2PO4. Serial dilutions were plated onto minimal medium supplemented with 15 mM glucose as the carbon source. The number of colony-forming units was determined after 36 h of incubation at 30 °C. In all the cases, the data were corrected with the number of cells that swam into the buffer-containing capillaries.

[6] = test system: Pectobacterium atrosepticum SCRI1043; assay: Growth experiment, sole phosphorus source; type: cell-based; conditions: PFM9 minimal medium, 5 mM ligand, 30 °C, 48 h
Description: (§4) P. atrosepticum SCRI1043 was cultured overnight in phosphate-free M9-based medium (PFM9) supplemented with 20 mM glucose as the carbon source and 500 µM inorganic phosphate as the phosphate source. Cultures were washed and then diluted to an OD600 of 0.02 in PFM9 supplemented with different PacP ligands as the sole carbon or phosphorous source at a final concentration of 5 mM. Subsequently, 200 µL aliquots of these cultures were transferred into microwell plates, which were subsequently grown at 30 °C on a Bioscreen microbiological growth analyzer (Oy Growth Curves Ab Ltd., Helsinki, Finland) for 48 h.

[7] = biological target: ligand binding domain of the chemoreceptor ECA_RS12390 (PacP-LBD, R1, WP_011094075.1) (Pectobacterium atrosepticum, UniProt Q6D464); assay: ITC binding to PacP-LBD; conditions: 15 °C, Nb = no binding
Chain of ligand binding domain of the chemoreceptor ECA_RS12390 (PacP-LBD, R1, WP_011094075.1) (Q6D464 entry or part of it): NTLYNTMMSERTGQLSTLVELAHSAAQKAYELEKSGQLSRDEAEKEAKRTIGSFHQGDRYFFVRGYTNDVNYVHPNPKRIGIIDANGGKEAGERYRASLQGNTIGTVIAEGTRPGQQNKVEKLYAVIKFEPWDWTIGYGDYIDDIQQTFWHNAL
Description: as §1, §2

[8] = biological target: LBD of chemoreceptor R9 (WP_189529961.1) (Paludibacterium paludis, UniProt A0A918NWY2); assay: ITC binding to R9-LBD; conditions: 20 °C, Nb = no binding
Chain of LBD of chemoreceptor R9 (WP_189529961.1) (A0A918NWY2 entry or part of it): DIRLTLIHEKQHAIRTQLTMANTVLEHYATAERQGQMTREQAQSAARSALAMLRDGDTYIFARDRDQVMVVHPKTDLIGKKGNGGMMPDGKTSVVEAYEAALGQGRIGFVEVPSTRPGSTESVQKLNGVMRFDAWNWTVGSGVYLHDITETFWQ
Description: as §1, §2

[9] = test system: PacP-LBD mutant (Y86, H100, R105, Y121, K148 and Y167 replaced by alanine); assay: ITC binding to PacP-LBD binding site motif mutant; design: species or system Pectobacterium atrosepticum; conditions: 36 μM PacP-LBD alanine mutant; 1 mM glycerol 3-phosphate, 2.5 mM glyceraldehyde 3-phosphate
Description: as §1, with “The purified proteins were dialyzed overnight into the corresponding analysis buffers (Additional file 2: Table S4) for immediate analysis.” left out
All experiments were conducted on a VP microcalorimeter (Microcal, MA) at 15 °C for PacP-LBD and at 20 °C for the remaining proteins. […] The mean enthalpies measured from the injection of the ligands into the analysis buffer were subtracted from the raw titration data prior to data analysis with the MicroCal version of ORIGIN. […]

ITC binding to R7-LBD = assay: ITC binding to R7-LBD; design: species or system Methyloversatilis discipulorum; conditions: 20 °C, Nb = no binding
Description: as §1, §2

[10] = test system: Pectobacterium atrosepticum SCRI1043; assay: Growth experiment, sole carbon source; type: cell-based; conditions: PFM9 minimal medium, 5 mM ligand, 30 °C, 48 h
Description: as §4

[11] = biological target: LBD of chemoreceptor R5 (WP_028444678.1); assay: ITC binding to R5-LBD; design: species or system Chitinimonas koreensis; conditions: 20 °C, Nb = no binding
Description: as §1, §2

P. atrosepticum SCRI1043 = assay: Quantitative capillary chemotaxis assay, wild type; type: cell-based, Pectobacterium atrosepticum; conditions: wild type SCRI1043, 1 mM ligand, 30 min
Description: as §3

Chain of LBD of chemoreceptor R3 (WP_006464688.1) (A0ABU1PC34 entry or part of it): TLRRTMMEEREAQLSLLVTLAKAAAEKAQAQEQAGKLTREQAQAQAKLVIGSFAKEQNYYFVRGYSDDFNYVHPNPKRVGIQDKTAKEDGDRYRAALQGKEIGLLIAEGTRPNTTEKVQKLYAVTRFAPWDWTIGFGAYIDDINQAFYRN

## O=CC(O)COP(=O)(O)O (stereo not shown) [glyceraldehyde 3-phosphate]
[1]
  KD: Nb
[2]
  Kd: 100 ± 2 µM
[3]
  KD: Nb
[4]
  KD: Nb
[5]
  chemotaxis (capillary assay): Only glycerol 2-phosphate served as an attractant for the mutant
[6]
  growth as sole phosphorus source: devoid of apparent metabolic value
[7]
  Kd: 58 ± 2 µM
[8]
  KD: Nb
[9]
  binding in microcalorimetric titration: absence of binding
ITC binding to R7-LBD
  Kd: 126 ± 9 µM
[10]
  growth as sole carbon source: devoid of apparent metabolic value
[11]
  KD: Nb
P. atrosepticum SCRI1043
  chemotaxis (capillary assay): Modest chemoattraction
